Results reported in patent US20250375452A1 (AMGEN INC., priority 2021, published 2025).

Key:
[1] = tested on: extracellular signal-regulated kinase (ERK); settings: preclinical studies; cited from earlier work
[2] = Phase 1 fixed-sequence study, sotorasib with omeprazole under fasted conditions; format: in vivo, human
[3] = Phase 1 fixed-sequence crossover study, sotorasib with famotidine or omeprazole under fed conditions; format: in vivo, human; settings: for decrease of sotorasib AUC / decrease of sotorasib Cmax: fed conditions
Method: Safety and tolerability monitoring was performed throughout the study.
A total of […] healthy subjects (1 woman and 13 men) were enrolled in the study. Thirteen out of the 14 subjects received all treatments and completed the study.

[4] = Phase 1 fixed-sequence study, sotorasib with rifampin; format: in vivo, human
[5] = Phase 1 fixed-sequence study, digoxin with sotorasib; format: in vivo, human
Method: Blood samples for digoxin PK were collected predose and up to 144 hours post-digoxin dose. Samples were measured using validated high-performance liquid chromatography tandem mass spectrometry methods.

[6] = Phase 1 fixed-sequence study, midazolam with sotorasib; settings: 2 mg midazolam coadministered with 960 mg sotorasib after 14 days of daily sotorasib vs midazolam alone, 5 subjects
[7] = coadministration with omeprazole vs sotorasib alone, fasted state
[8] = famotidine 10 hours prior to and 2 hours after a single dose of sotorasib
[9] = repeat doses of omeprazole with a single dose of sotorasib
[10] = coadministration with a single dose of sotorasib vs digoxin alone
[11] = with sotorasib vs digoxin alone

## C=CC(=O)N1CCN(c2nc(=O)n(-c3c(C)ccnc3C(C)C)c3nc(-c4c(O)cccc4F)c(F)cc23)[C@@H](C)C1 (atropisomer, axis not shown) [sotorasib, 6-fluoro-7-(2-fluoro-6-hydroxyphenyl)-(1M)-1-[4-methyl-2-(propan-2-yl)pyridin-3-yl]-4-[(2S)-2-methyl-4-(prop-2-enoyl)piperazin-1-yl]pyrido[2,3-d]pyrimidin-2(1H)-one]
[1]
  phosphorylation of extracellular signal-regulated kinase (ERK): inhibited nearly all detectable phosphorylation
[2]; coadministered with 40 mg omeprazole or administered alone, healthy subjects
  safety and tolerability: safe and well tolerated
[2]; [7]
  decrease of sotorasib AUCinf: 42%
  decrease of sotorasib Cmax: 57%
[2]; with omeprazole vs sotorasib alone, fasted
  Mean terminal half-life (t1/2), coadministration compared to alone: similar
[3]; 960 mg sotorasib with single dose 40 mg famotidine and after multiple daily 40 mg omeprazole, fed, healthy subjects
  safety and tolerability: safe and well tolerated
[3]; [8]
  decrease of sotorasib AUC: 38%
  decrease of sotorasib Cmax: 35%
[3]; [9]
  decrease of sotorasib AUC: 57%
  decrease of sotorasib Cmax: 65%
[4]; coadministered with 600 mg rifampin or administered alone, healthy subjects
  safety and tolerability: safe and well tolerated
[4]; inferred from multiple doses of rifampin, consistent with in vitro data
  CYP3A4 substrate status: is a CYP3A4 substrate
[4]; inferred from single dose of rifampin
  OATP1B1 substrate status: not a substrate of OATP1B1
[4]; multiple doses of rifampin
  decrease of sotorasib AUCinf: 51%
  decrease of sotorasib Cmax: 35%

## C[C@H]1O[C@@H](O[C@H]2[C@@H](O)C[C@H](O[C@H]3[C@@H](O)C[C@H](O[C@H]4CC[C@@]5(C)[C@H](CC[C@@H]6[C@@H]5C[C@@H](O)[C@]5(C)[C@@H](C7=CC(=O)OC7)CC[C@]65O)C4)O[C@@H]3C)O[C@@H]2C)C[C@H](O)[C@@H]1O [digoxin]
[5]; [10]
  increase of digoxin AUCinf: approximately 21%
  increase of digoxin Cmax: ~91%
[5]; single doses of 0.5 mg digoxin alone or coadministered with 960 mg sotorasib
  safety and tolerability: safe and well tolerated
[5]; [11]
  Digoxin mean terminal half-life (t1/2), coadministration compared to alone: similar
  Digoxin median time to maximal plasma concentration (tmax), coadministration compared to alone: similar

## Cc1ncc2n1-c1ccc(Cl)cc1C(c1ccccc1F)=NC2 [midazolam]
[6]
  decrease of midazolam AUV: 53%
  decrease of midazolam Cmax: 48%
